Measurements reported in patent publication US20250145576A1, “CATHEPSIN K INHIBITOR, AND PREPARATION METHOD THEREFOR AND USE THEREOF” (SHANDONG NEW TIME PHARMACEUTICAL CO., LTD., priority 2022, published 2025).
Read-outs that look alike come from different tables or passages of the source.

What was measured:
Cathepsin K = Cathepsin K (Homo sapiens (Human), UniProt P43235); test: Cat K inhibitor screening kit, AFC substrate fluorescence; assay type: biochemical
Method: Reagent information: Cat K inhibitor screening kit: batch number, 6L23K01500; supplier, BiVision. Drug preparation: compounds were dissolved in DMSO and prepared into 10 mM stock solutions. When in use, the stock solutions were prepared into the required concentrations by using a buffer.
Cathepsin K (CTSK, EC 3.4.22.38) is a lysosomal cysteine protease, participates in osteoclastic bone remodeling and resorption, and can further degrade collagen, gelatin and elastin. The cathepsin K inhibitor screening kit from Biovision uses the ability of the active cathepsin K to cleave a synthetic AFC-based peptide substrate to release AFC and the AFC can be easily quantified by using a fluorometer or fluorescent microplate reader. In the presence of a specific cathepsin K specific inhibitor, the cleavage of the substrate is reduced/eliminated, resulting in a reduction or complete loss of AFC fluorescence. The simple and high-throughput adaptive assay kit can be used to screen/study/characterize a potential inhibitor of the cathepsin K.
(§1) 20 μL of a buffer, a Cat K inhibitor and test compounds (1 μM and 10 μM) were added to 96-well plates to serve as an EC well, an IC well and an S well, respectively; 50 μL of a Cat K enzyme solution was added into all the wells respectively and the mixture was incubated for 10-15 min at room temperature to establish an enzyme inhibitor complex; 30 μL of a Cat K substrate solution was added into all the wells and the mixture was incubated for 30-60 min at room temperature; and the final volume of the reaction was 100 μL.
The screening method was the same as 1.1, the concentrations of the test compounds were set between 0.1 nM and 10 μM, 4-5 concentrations were selected for detection, IC50 curves were drawn, and IC50 values were calculated.

Cathepsin S = test: Screening of Cathepsin S, fluorescence; assay type: biochemical; details: >> inhibition rate did not exceed 20% at test concentration; > greater than 35%; ≈ about 50%; < less than 50%
Method: as §1, with “10 μL of” for “20 μL of”, “a Cat S inhibitor and” for “a Cat K inhibitor and”, “a […]” for “a Cat K enzyme solution”, “inhibitor complex; 40 μL of” for “inhibitor complex; 30 μL of”, “a Cat S substrate solution” for “a Cat K substrate solution”
(§2) The screening method was the same as above, the concentrations of the test compounds were set between 0.1 nM and 10 μM, 4-5 concentrations were selected for detection, IC50 curves were drawn, and IC50 values were calculated.

Cathepsin B = Cathepsin B (Homo sapiens (Human), UniProt P07858); test: Screening of Cathepsin B, fluorescence; assay type: biochemical; details: >> inhibition rate did not exceed 20% at test concentration; > greater than 35%; ≈ about 50%; < less than 50%
Method: as §1, with “10 μL” for “20 μL”, “Cat B” for “Cat K”, “complex; 40” for “complex; 30”
as §2

RAW264.7 cells = test: Osteoclast differentiation of RAW264.7 cells induced by RANKL, TRAP staining; assay type: cell-based; details: for osteoclastogenesis compared with model group (in words): K29 at 1 μM and 10 μM, K31 at 100 nM and 500 nM
Method: RAW264.7 cells were inoculated at a density of 1×10^5/well in 96-well plates and cultured in DMEM containing 10% fetal bovine serum and 1% penicillin/streptomycin. The cells were cultured in a constant-temperature incubator containing 5% CO2 at 37° C. 100 ng/mL of a RANKL inducing solution was added into each well of the administration groups and a model group to culture osteoclasts, the solution (containing RANKL) was changed every 2-3 days, inhibitor working solutions with different concentrations were added into the administration groups after the solution was changed for the 3rd time, a PBS working solution with the same volume was added into the model group, and the cells were continuously cultured for 24 h; and in the control group, the RANKL inducing solution and the inhibitor working solution were not added, and the PBS working solution with the same total volume was added. A culture supernatant was removed, the cells were rinsed 3 times with PBS and stained with a TRAP staining kit, and the multinucleated osteoclasts were observed under an optical microscope and counted.

[1] = design: species or system SD rats; details: rat, in vivo
Method: • Chromatographic column: […] Electrospray ionization (ESI); ion spray voltage: 3,500 V; ion source temperature: 300° C.; auxiliary gas: 45 Arb; and sheath gas: 10 Arb. • Intravenous intraperitoneal administration solution: prepared with 0.5% HS-15 normal saline solution with the concentration of 0.2 mg/mL; and • intragastric administration suspension: ground and suspended with 0.5% CMC-Na aqueous solution with the concentration of 0.5 mg/mL. Each administration was tested using 2 SD rats per compound. The two compounds […] were subjected to intravenous injection and intragastric administration respectively. […] All blood samples were anticoagulated by heparin and centrifuged for 10 min at 4,000 g. The supernatant plasma was taken for cryopreservation to be tested. 50 μL of the plasma sample was taken, 150 μL of acetonitrile was added, the mixture was evenly mixed by vortex and centrifuged at 9,100 g for 10 min, and a supernatant was taken and 2 μL of the supernatant was injected and detected on a machine.

Cathepsin K, sequence (P43235 115-329): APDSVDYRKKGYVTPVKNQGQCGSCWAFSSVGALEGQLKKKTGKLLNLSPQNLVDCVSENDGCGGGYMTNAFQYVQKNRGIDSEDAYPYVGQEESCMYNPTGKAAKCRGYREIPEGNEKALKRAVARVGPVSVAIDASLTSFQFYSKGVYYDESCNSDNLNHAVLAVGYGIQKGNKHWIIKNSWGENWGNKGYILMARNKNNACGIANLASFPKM

Q: Which IC50 (Cathepsin K) does the source give for `CN1CCN(c2ccc(CN(CC(C)(C)C)c3nccc(C#N)n3)cc2)CC1` [Compound K1, 2-[(2,2-dimethylpropyl){[4-(4-methylpiperazin-1-yl)phenyl]methyl}amino]pyrimidine-4-carbonitrile] here?
A: Its IC50 is 10 to 100 nM.

Q: What about the IC50 (Cathepsin K; stated in text) of the same molecule?
A: Its IC50 is under 100 nM.

Q: And the “Cat S/K ratio of inhibitory activities” value (Cathepsin S)?
A: The value was over 800.

Q: And the “Cat B/K ratio of inhibitory activities” value (Cathepsin B)?
A: The value was >1,600.

Q: With `CC(C)(C)CN(Cc1ccc(-c2ccccc2)cc1)c1nccc(C#N)n1` [Compound K2, 2-[(2,2-dimethylpropyl)[(4-phenylphenyl)methyl]amino]pyrimidine-4-carbonitrile] as the molecule, how does the IC50 (Cathepsin K) read?
A: Its IC50 is 100 to 500 nM.

Q: What about the “Cat S/K ratio of inhibitory activities” value (Cathepsin S) of the same molecule?
A: Its value is >>2,100.

Q: What about the “Cat B/K ratio of inhibitory activities” value (Cathepsin B) of the same molecule?
A: The value was >>2,100.

Q: What does the source list for `CC(C)(C)CN(Cc1ccc(-c2ccc(S(C)(=O)=O)cc2)cc1)c1nccc(C#N)n1` [Compound K6, 2-[(2,2-dimethylpropyl) ({4-[4-(methylsulfonyl)phenyl]phenyl}methyl)amino]pyrimidine-4-carbonitrile]?
A: IC50 (Cathepsin K): 100 to 500 nM; Cat S/K ratio of inhibitory activities (Cathepsin S): >>3,300; Cat B/K ratio of inhibitory activities (Cathepsin B): >>3,300

Q: With `CC(C)(C)CN(Cc1ccc(-c2ccc(C#N)s2)cc1)c1nccc(C#N)n1` [Compound K7, 2-({[4-(5-cyanothiophen-2-yl)phenyl]methyl}(2,2-dimethylpropyl)amino)pyrimidine-4-carbonitrile] as the molecule, how does the IC50 (Cathepsin K) read?
A: Its IC50 is 100 to 500 nM.

Q: With `Cc1ccc(-c2ccc(CN(CC(C)(C)C)c3nccc(C#N)n3)cc2)s1` [Compound K10, 2-[(2,2-dimethylpropyl){[4-(5-methylthiophen-2-yl)phenyl]methyl}amino]pyrimidine-4-carbonitrile] as the molecule, how does the IC50 (Cathepsin K) read?
A: Its IC50 is 100 to 500 nM.

Q: Which results are given for `CN1CCN(c2ccc(-c3ccc(CN(CC(C)(C)C)c4nccc(C#N)n4)cc3)cc2)CC1` [Compound K13, 2-[(2,2-dimethylpropyl) ({4-[4-(4-methylpiperazin-1-yl)phenyl]phenyl}methyl)amino]pyrimidine-4-carbonitrile]?
A: IC50 (Cathepsin K): < 10 nM; IC50 (Cathepsin K; stated in text): < 10 nM

Q: Which IC50 (Cathepsin K) does the source give for `CN1CCN(c2ccc(-c3ccc(CN(CC4CCCCC4)c4nccc(C#N)n4)cc3)cc2)CC1` [Compound K15, 2-[(cyclohexylmethyl) ({4-[4-(4-methylpiperazin-1-yl)phenyl]phenyl}methyl)amino]pyrimidine-4-carbonitrile] here?
A: The IC50 was under 10 nM.

Q: And the IC50 (Cathepsin K; stated in text)?
A: The IC50 was under 10 nM.

Q: What about the “Cat S/K ratio of inhibitory activities” value (Cathepsin S) of the same molecule?
A: Its value is “≈7,460”.

Q: What about the “Cat B/K ratio of inhibitory activities” value (Cathepsin B) of the same molecule?
A: The value was >15,000.

Q: Which results are given for `CS(=O)(=O)c1ccc(-c2ccc(CN(CC3CCCCC3)c3nccc(C#N)n3)cc2)cc1` [Compound K16, 2-[(cyclohexylmethyl) ({4-[4-(methylsulfonyl)phenyl]phenyl}methyl)amino]pyrimidine-4-carbonitrile]?
A: IC50 (Cathepsin K): 100 to 500 nM; Cat S/K ratio of inhibitory activities (Cathepsin S): >>3,300; Cat B/K ratio of inhibitory activities (Cathepsin B): >>3,300

Q: For `CC(C)(C)CN(Cc1ccc(-c2cscn2)cc1)c1nccc(C#N)n1` [Compound K17, 2-(neopentyl(4-(thiazol-4-yl)benzyl)amino)pyrimidine-4-carbonitrile], which IC50 (Cathepsin K) is on record?
A: The IC50 was 100 to 500 nM.

Q: With `O=C1COCC1NC(=O)[C@@H]1CCCC[C@H]1C(=O)N1CCc2c([nH]c3c(F)cccc23)C1` (stereo partly drawn) [Compound K19, (1R,2R)-2-(8-fluoro-2,3,4,9-tetrahydro-1H-pyrido[3,4-b]indole-2-carbonyl)-N-(4-oxotetrahydrofuran-3-yl)cyclohexane-1-carboxamide] as the molecule, how does the IC50 (Cathepsin K) read?
A: Its IC50 is 10 to 100 nM.

Q: Which results are given for `COc1cccc2c3c([nH]c12)CCN(C(=O)[C@@H]1CCCC[C@H]1C(=O)N[C@H]1COCC1=O)C3` [Compound K29, (1R,2R)-2-(6-methoxy-2,3,4,5-tetrahydro-1H-pyrido[4,3-b]indole-2-carbonyl)-N—(S)-(4-oxotetrahydrofuran-3-yl)-cyclohexane-1-carboxamide]?
A: Number of osteoclasts (RAW264.7 cells; 1 μM): 13; Number of osteoclasts (RAW264.7 cells; 10 μM): 11.25; osteoclastogenesis (in words) (RAW264.7 cells; 10 μM): obviously inhibited the osteoclastogenesis; osteoclastogenesis compared with model group (in words) (RAW264.7 cells): tendency to inhibit osteoclastogenesis; F [1]: 62.1%; Tmax ([1]; iv, 1 mg/kg): 1.98 min; Bioavailability % ([1]; po): 62.1%; CLz ([1]; po): 26.7 mL/min/kg; Cmax ([1]; po): 1,285 ng/mL; Tmax ([1]; po): 15 min; Vz ([1]; po): 3.83 L/kg; t1/2z ([1]; po): 99 min; Tmax ([1]; po, 5 mg/kg): 15 min

Q: For `COc1cc(F)cc2c3c([nH]c12)CCN(C(=O)[C@@H]1CCCC[C@H]1C(=O)N[C@H]1COCC1=O)C3` [Compound K31, (1R,2R)-2-(8-fluoro-6-methoxy-2,3,4,5-tetrahydro-1H-pyrido[4,3-b]indole-2-carbonyl)-N—(S)-(4-oxotetrahydrofuran-3-yl)-cyclohexane-1-carboxamide], which Number of osteoclasts (RAW264.7 cells; 100 nM) is on record?
A: The Number of osteoclasts was 13.25.

Q: And the Number of osteoclasts (RAW264.7 cells; 500 nM)?
A: The Number of osteoclasts was 14.

Q: What about the “osteoclastogenesis compared with model group (in words)” value (RAW264.7 cells) of the same molecule?
A: The value was “tendency to inhibit osteoclastogenesis”.

Q: And the F [1]?
A: Its F is 51.0%.

Q: What about the Tmax ([1]; iv, 1 mg/kg) of the same molecule?
A: Its Tmax is 1.98 min.

Q: What about the Bioavailability % ([1]; po) of the same molecule?
A: The Bioavailability % was 51.0%.

Q: What about the CLz ([1]; po) of the same molecule?
A: Its CLz is 27.8 mL/min/kg.

Q: And the Cmax ([1]; po)?
A: The Cmax was 936 ng/mL.

Q: What about the Tmax ([1]; po) of the same molecule?
A: The Tmax was 15 min.

Q: And the Vz ([1]; po)?
A: The Vz was 4.38 L/kg.

Q: What about the t1/2z ([1]; po) of the same molecule?
A: The t1/2z was 109 min.

Q: What about the Tmax ([1]; po, 5 mg/kg) of the same molecule?
A: Its Tmax is 15 min.

Q: For `CC(C)(F)C[C@H](N[C@@H](c1ccc(-c2ccc(S(C)(=O)=O)cc2)cc1)C(F)(F)F)C(=O)NC1(C#N)CC1` [Odanacatib, reference compound], which “Cat S/K ratio of inhibitory activities” value (Cathepsin S) is on record?
A: The value was under 290.

Q: And the “Cat B/K ratio of inhibitory activities” value (Cathepsin B)?
A: The value was over 590.
